In patent publication US4687773A, “(+)-N-N-propylnorapomorphine and selective limbic activity” (priority 1985, dated 1987):
Where a name gives a salt, the structure may show the parent alone.

Tested on: DA in the corpus striatum (basal ganglia)
Experiment: Head posture (contralateral head deviation) after intrastriatal DA
Assay type: in vivo, rat
Settings: intrastriatal DA 16 μg; aporphine 3 mg/kg systemic (route not given)

## CCCN1CCc2cccc3c2[C@@H]1Cc1ccc(O)c(O)c1-3 [(+)NPA, (S)-N-n-Propylnorapomorphine Hydrochloride]
  Contralateral Head Deviation, Percent of Total: 66.7% of Total
  Contralateral Head Deviation, Time: 480 ± 44 s
